Literature values as cited in patent US4127535A, “Novel dipeptides, intermediates therefor, and compositions and methods employing said dipeptides” (priority 1977, dated 1978).

Columns and labels:
[1] = system: partially purified brain opiate receptor sites; conditions: literature, Bradbury et al.
[2] = injected directly into the brain of the rat; Belluzzi et al.
[3] = literature

Substance: H-Tyr-Gly-Gly-Phe-Met-OH [methionine enkephalin]
- binding to partially purified brain opiate receptor sites [1]: binds stereo-specifically
- analgesic activity [2]: weak analgesic agent of short duration
- activity in bioassays for opiate activity [3]: very active
